These results are taken from article PMC11460631, “Inhibition of transient receptor potential vanilloid 3 channels by antimalarial hydroxychloroquine alleviates TRPV3-dependent dermatitis” (The Journal of Biological Chemistry, 2024).

The assay addresses T1, TRPV3 L670 alanine mutation (Homo sapiens, UniProt Q8NET8, L670A).
T1 construct: YFP or GFP; expressed in transfected cells; host or cells: HEK293T
T1 sequence (Q8NET8 1-790 L670A): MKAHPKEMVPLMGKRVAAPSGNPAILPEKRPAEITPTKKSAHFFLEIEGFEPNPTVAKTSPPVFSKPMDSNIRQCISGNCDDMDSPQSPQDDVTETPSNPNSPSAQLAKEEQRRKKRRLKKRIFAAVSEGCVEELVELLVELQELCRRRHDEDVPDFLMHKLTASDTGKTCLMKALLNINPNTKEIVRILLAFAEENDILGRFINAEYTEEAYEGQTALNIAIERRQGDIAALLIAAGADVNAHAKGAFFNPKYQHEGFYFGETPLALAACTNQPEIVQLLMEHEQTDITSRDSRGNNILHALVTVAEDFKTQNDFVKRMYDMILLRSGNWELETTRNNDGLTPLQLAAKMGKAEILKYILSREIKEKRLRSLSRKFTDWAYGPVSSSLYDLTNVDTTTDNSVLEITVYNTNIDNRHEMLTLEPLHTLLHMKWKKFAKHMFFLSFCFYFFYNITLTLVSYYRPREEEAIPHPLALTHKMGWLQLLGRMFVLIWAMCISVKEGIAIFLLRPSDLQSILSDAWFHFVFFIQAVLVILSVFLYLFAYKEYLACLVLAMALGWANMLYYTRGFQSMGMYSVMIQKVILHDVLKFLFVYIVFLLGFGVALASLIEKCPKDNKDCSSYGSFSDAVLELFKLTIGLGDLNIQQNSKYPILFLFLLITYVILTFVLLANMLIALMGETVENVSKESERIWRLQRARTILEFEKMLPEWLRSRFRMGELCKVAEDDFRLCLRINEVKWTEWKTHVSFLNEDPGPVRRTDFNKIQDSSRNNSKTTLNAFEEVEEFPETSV
Briefly: Whole-cell recording of TRPV3 L670 alanine mutant. The class given is cell-based. Conditions: 1 mM 2-APB, ± 80 mV. The text has this: As we mentioned above, HCQ may act as a pore blocker of TRPV3. To probe the binding configuration of HCQ to TRPV3, we carried out molecular docking using Rosetta suite (https://rosettacommons.org) ([21]) and validated the docking models with point mutations in TRPV3 (Fig. 4A). […] Furthermore, when we introduced L670A to L591A mutant, we also observed a left shift on the concentration–response curve on this double mutant as compared to L591A mutant (Fig. 4H).
Figure 4 Residues of the pore domain are critical for HCQ inhibition on TRPV3.A, left panel, docking model of HCQ to the pore domain of TRPV3 structure (6uw4). Right panels, top view and side view of the HCQ-binding pocket. B-J, representative whole-cell recording of TRPV3 and mutants in response to 1 mM 2-APB, the mixture of 1 mM 2-APB and concentration gradients of HCQ with the holding potential of ± 80 mV. K, concentration–response curves of HCQ in WT TRPV3 and mutants (n = 3–5 cells). L, quantification of the inhibitory ratio of HCQ (100 μM) on WT, L591A, and N671Q. […]
All data from whole-cell recordings were analyzed in Igor Pro (WaveMetrics). IC50 values were determined by fitting the Hill equation to concentration-response relationships. […]

In turn, `CCN(CCO)CCCC(C)Nc1ccnc2cc(Cl)ccc12` (stereo not shown) [HCQ, hydroxychloroquine] registered an IC50 of 170 ± 40 nM.
